Publication PMC8639922, “KSHV transactivator-derived small peptide traps coactivators to attenuate MYC and inhibits leukemia and lymphoma cell growth” (Communications Biology, 2021)
Square brackets hold non-standard residues; d marks the D form. Peptide text beside a SMILES is read from it. Orn = NCCC[C@H](N)C(=O)O; βAla = NCCC(=O)O

Legend:
BC-1 = assay: Flow cytometry, apoptosis induction (Annexin V staining); assay type: cell-based, human; conditions: BC-1, 24 h, AnnexinV+ 7AAD-
Procedure: (§1) Leukoreduction system chambers (LRS) from healthy donors were purchased from Vitalant. Peripheral blood mononuclear cells (PBMCs) were prepared by a standard Ficoll gradient method. PBMCs along with THP-1 and BCBL-1 cell lines (2 × 10^6 cells/ml, 0.2 ml 10% FBS/RPMI/DMEM per well of a 96-well plate) were treated with various doses (0–256 μM) of either VGN50 peptide or control mutant peptide for 24 h. Cell death, apoptosis, and proliferation were analyzed by flow cytometry (BD Acuri) after intracellular staining with anti-humanKi67-Alexa488 (Biolegend, 1:100) along with the isotype control antibody, annexin-V-FITC with 7-AAD staining (Biolegend) according to the manufacture’s protocol, Live/dead Fixable Red Dead Cell staining kit (Invitrogen) according to the manufacture’s protocol, or MTT assay. Peptides were commercially synthesized (GenScript) with >90% purity with TFA removal.
(§2) AnnexinV+ 7AAD- % = apoptosis % […]
(§3) S-Figure 3. Flow cytometry analyses
(§4) (a) Apoptosis (%) was determined as Annexi nV+ 7AAD- popul at i on gat ed i n r ed shown i n
(§5) representative FACS plots of BCBL-1 cel l s t r eat ed wi t h PBS or VGN50 at 32µM. […]

BCBL-1 = assay: as above; assay type: cell-based, human; conditions: BCBL-1, 24 h, AnnexinV+ 7AAD-
Procedure: as §1, §2, §3, §4, §5

[1] = assay type: in vivo, BALB/c mice; conditions: BALB/c female, 10 mg/kg i.p., 5 day-on 2 day-off, two weeks, average n=5/group
Procedure: Based on strong and selective MYC down-regulation and cell killing activity of cancer cells in vitro, we next studied the therapeutic potential of VGN50 by examining the efficacy of cancer cell killing over toxicities to mice in a PEL xenograft model with BCBL-1 cells. Pilot studies determined that the peptide was well-tolerated in immunocompetent mice when administered as 10 mg/kg peptide via intraperitoneal (i.p.) injection with a 5-day-on 2-day-off schedule for 2 weeks, as shown by no notable changes in body weight, complete blood counts, and serum biochemical properties (Supplementary Fig. 5). Based on the drug schedule, we examined the effects of the peptide on xenograft PEL cell growth. In this established model, BCBL-1 cells grow in the peritoneal cavity resulting in the accumulation of ascites, which can be measured as a body weight gain that corresponds to the volume of ascites. We inoculated male NRG mice with 2 × 10^7 BCBL-1 cells via i.p. injection followed by injections of VGN50 (10 mg/kg), mutant control peptide or PBS, daily for 10 days starting from 2 days after (day 0) tumor inoculation. All mice in the control PBS-treated groups reached the humane endpoint by 10 days (Fig. 6a). […] At the termination point, tumor growth was also validated by flow cytometry analysis of PEL cells in ascites fluid (Fig. 6b, c). […] A similar phenotype is reported in MYC knock-out cardiac myocytes and keratinocytes[56],[57].
PBS VGN50 Mutant Normal ranges […]
Ext ended Dat a Fi gure 5. BALB/ c mi ce ( 8 weeks ol d, female, n=5/ gr oup) wer e i nj ect ed wi t h 10mg/ kg of VGN50 or mut ant pept i de i n 200 uL i.p. wi t h a 5 day-on 2 day off schedul e f or t wo week s . Body wei ght changes wer e measur ed dai l y ( a) . At t he end of t he exper i ment , f r esh bl ood and ser um col l ect ed wer e subj ect ed f or complet e blood count s and serum biochemical pr oper t i es, r espect i vel y ( b) .
(1 picture or pasted object on this page, not shown here)

CC(C)C[C@H](NC(=O)CCNC(=O)[C@H](CCCNC(=N)N)NC(=O)[C@H](CCCNC(=N)N)NC(=O)[C@H](CCCNC(=N)N)NC(=O)[C@H](CCCN)NC(=O)[C@H](CCCNC(=N)N)NC(=O)[C@H](CCCNC(=N)N)NC(=O)[C@H](CCCCN)NC(=O)[C@H](CCCCN)NC(=O)[C@H](N)CCCNC(=N)N)C(=O)N[C@@H](CO)C(=O)N[C@@H](CO)C(=O)N[C@@H](C)C(=O)N[C@@H](C)C(=O)N[C@@H](C)C(=O)NCC(=O)N[C@@H](CC(C)C)C(=O)N[C@@H](Cc1ccc(O)cc1)C(=O)N[C@@H](CCC(N)=O)C(=O)N[C@@H](CC(C)C)C(=O)N[C@@H](CC(=O)O)C(=O)N[C@H](C(=O)O)[C@@H](C)O [Mt-P] (H-[dR]KKRR[Orn]RRR[βAla]LSSAAAGLYQLDT-OH; N-terminus and C-terminus assumed)
AnnexinV+% (BC-1; replicate 1): 4.73%
AnnexinV+% (BC-1; replicate 2): 4.24%
AnnexinV+% (BC-1; replicate 3): 4.01%
AnnexinV+% (BCBL-1; replicate 1): 3.66%
AnnexinV+% (BCBL-1; replicate 2): 5.9%
AnnexinV+% (BCBL-1; replicate 3): 4.52%
Absolute Basophil cells ([1]; normal 0.0-0.1): 0.06 K/ul
Absolute Eosinophil cells ([1]; normal 0.0-0.1): 0.14 K/ul
Total Bilirubin ([1]; normal 0.0-0.2): 0.05 mg/dL
Creatinine ([1]; normal 0.0-0.3): 0.20 mg/dL
Basophil % ([1]; normal 0.0-0.5): 0.70%
Eosinophil % ([1]; normal 0.0-0.8): 2.14%
Alanine Transaminase ([1]; normal 0-403): 82.85 U/L
Aspartate Transaminase ([1]; normal 0-552): 651.13 U/L
Absolute Monocyte cells ([1]; normal 0.2-1.0): 0.43 K/ul
Absolute Neutrophil cells ([1]; normal 1.0-3.7): 1.12 K/ul
Monocyte % ([1]; normal 2.5-7.5): 5.52%
Albumin ([1]; normal 2.9-4.0): 3.67 g/dL
Absolute Lymphocyte cells ([1]; normal 4.3-10.6): 2.54 K/ul
Total Protein ([1]; normal 4.7-6.1): 4.81 g/dL
MPV ([1]; normal 5.0-20.0): 3.05 fL
WBC ([1]; normal 5.1-14.7): 4.22 K/ul
Potassium ([1]; normal 6.9-10.0): 6.90 mmol/L
Phosphorus ([1]; normal 7.5-10.7): 7.46 mg/dL
Calcium ([1]; normal 9.6-11-5): 9.39 mg/dL
Hemoglobin ([1]; normal 11.7-16.2): 7.07 g/dL
RDW % ([1]; normal 12.4-27.0): 10.08%
Neutrophil % ([1]; normal 12.5-31.2): 16.70%
MCH ([1]; normal 13.3-16.7): 7.62 pg
Blood Urea Nitrogen ([1]; normal 15.2-34.7): 20.03 mg/dL
MCHC ([1]; normal 27.6-32.9): 13.18 g/dL
Hematocrit % ([1]; normal 38.3-54.0): 27.72%
MCV ([1]; normal 45.3-53.6): 29.04 fL
Alkaline Phosphatase ([1]; normal 49-172): 129.20 U/L
Lymphocyte % ([1]; normal 62.9-82.7): 31.21%
Chloride ([1]; normal 105-118): 112.13 mmol/L
Glucose ([1]; normal 130-254): 194.73 mg/dL
Sodium ([1]; normal 150-160): 145.25 mmol/L
Platelets ([1]; normal 574-1079): 333.29 K/uL
Amylase ([1]; normal 2463-6660): 1624.05 U/L
